Results from patent US12145944B2, “Imidazopyrimidines as EED inhibitors and the use thereof” (THE REGENTS OF THE UNIVERSITY OF MICHIGAN, priority 2019, dated 2024).
pIC50: −log10 of the molar value.

Tested on: KARPAS422 human B cell lymphoma cell
Test: Cell proliferation, KARPAS422, 7 day treatment (WST-8)
Type: cell-based
Settings: Homo sapiens, KARPAS-422, 168 h, anti-proliferative IC50, Karpas 422 cell line, 7 day treatment; read-out: Karpas Cell line
Experimental: “N/A” stands for “not assessed”.
Analysis of Cell Proliferation:
To assess the effect of PRC2 inhibition on cell growth, cells were seeded in 96-well cell culture plates at a density of 2 000-3 000 cells/well in 200 µL of culture medium, and treated with serially diluted compounds for 7 days at 37° C. in an atmosphere of 5% CO2. Cell growth was evaluated by a […] WST-8 assay (Dojindo Molecular Technologies) using a Tecan Infinite M1000 multimode microplate reader (Tecan, Morrisville, NC). The WST-8 reagent was added to the plate, incubated for 1-4 h, and read at 450 nm. The readings were normalized to the DMSO-treated cells, and the IC50 was calculated by nonlinear regression analysis using GraphPad Prism 6 software

Question: `O=C1c2ncn3c(NCc4c(F)ccc5c4CCO5)ncc(c23)-c2ccc(C(F)(F)F)cc2CN1CCF` [compound 61, 12-(((5-fluoro-2,3-dihydrobenzofuran-4-yl)methyl)amino)-4-(2-fluoroethyl)-7-(trifluoromethyl)-4,5-dihydro-3H-2,4,11,12a-tetraazabenzo[4,5]cycloocta[1,2,3-cd]inden-3-one] was tested. Which pIC50 did it give?
Answer: The pIC50 was 8.79.

Question: With `CC(C)(F)CN1Cc2cc(C(F)(F)F)ccc2-c2cnc(NCc3c(F)ccc4c3CCO4)n3cnc(c23)C1=O` [compound 62, 12-(((5-fluoro-2,3-dihydrobenzofuran-4-yl)methyl)amino)-4-(2-fluoro-2-methylpropyl)-7-(trifluoromethyl)-4,5-dihydro-3H-2,4,11,12a-tetraazabenzo[4,5]cycloocta[1,2,3-cd]inden-3-one] as the compound, how does the pIC50 read?
Answer: The pIC50 was 8.31.

Question: `CC(F)(F)CN1Cc2cc(C(F)(F)F)ccc2-c2cnc(NCc3c(F)ccc4c3CCO4)n3cnc(c23)C1=O` [compound 63, 4-(2,2-difluoropropyl)-12-(((5-fluoro-2,3-dihydrobenzofuran-4-yl)methyl)amino)-7-(trifluoromethyl)-4,5-dihydro-3H-2,4,11,12a-tetraazabenzo[4,5]cycloocta[1,2,3-cd]inden-3-one] was tested. Which pIC50 did it give?
Answer: Its pIC50 is 8.43.

Question: `O=C1c2ncn3c(NCc4c(F)ccc5c4CCO5)ncc(c23)-c2ccc(C(F)(F)F)cc2CN1CC1CCOCC1` [compound 66, 12-(((5-fluoro-2,3-dihydrobenzofuran-4-yl)methyl)amino)-4-((tetrahydro-2H-pyran-4-yl)methyl)-7-(trifluoromethyl)-4,5-dihydro-3H-2,4,11,12a-tetraazabenzo[4,5]cycloocta[1,2,3-cd]inden-3-one] was tested. Which pIC50 did it give?
Answer: The pIC50 was 9.13.

Question: How did the pIC50 turn out when `O=C1c2ncn3c(NCc4c(F)ccc5c4CCO5)ncc(c23)-c2ccc(C(F)(F)F)cc2CN1C1CC1` [compound 67, 4-cyclopropyl-12-(((5-fluoro-2,3-dihydrobenzofuran-4-yl)methyl)amino)-7-(trifluoromethyl)-4,5-dihydro-3H-2,4,11,12a-tetraazabenzo[4,5]cycloocta[1,2,3-cd]inden-3-one] was run?
Answer: Its pIC50 is 8.11.

Question: With `O=C1c2ncn3c(NCc4c(F)ccc5c4CCO5)ncc(c23)-c2ccc(C(F)(F)F)cc2CN1CC1COCCO1` (centres unmarked) [compound 68, 4-((1,4-dioxan-2-yl)methyl)-12-(((5-fluoro-2,3-dihydrobenzofuran-4-yl)methyl)amino)-7-(trifluoromethyl)-4,5-dihydro-3H-2,4,11,12a-tetraazabenzo[4,5]cycloocta[1,2,3-cd]inden-3-one] as the compound, how does the pIC50 read?
Answer: Its pIC50 is 8.87.

Question: With `COc1cccc(F)c1CNc1ncc2c3c(ncn13)C(=O)N(C1CC1)Cc1nc(C(F)(F)F)ccc1-2` [compound 69, 4-cyclopropyl-12-((2-fluoro-6-methoxybenzyl)amino)-7-(trifluoromethyl)-4,5-dihydro-3H-2,4,6,11,12a-pentaazabenzo[4,5]cycloocta[1,2,3-cd]inden-3-one] as the compound, how does the pIC50 read?
Answer: Its pIC50 is < 7.00.

Question: How did the pIC50 turn out when `COc1cccc(F)c1CNc1ncc2c3c(ncn13)C(=O)N(C1CC1)Cc1cc(C(F)(F)F)ncc1-2` [compound 70, 4-cyclopropyl-12-((2-fluoro-6-methoxybenzyl)amino)-7-(trifluoromethyl)-4,5-dihydro-3H-2,4,8,11,12a-pentaazabenzo[4,5]cycloocta[1,2,3-cd]inden-3-one] was run?
Answer: The pIC50 was < 7.00.

Question: How did the pIC50 turn out when `COc1cccc(F)c1CNc1ncc2c3c(ncn13)C(=O)N(C(C)C)Cc1nc(C(F)(F)F)ccc1-2` [compound 71, 12-((2-fluoro-6-methoxybenzyl)amino)-4-isopropyl-7-(trifluoromethyl)-4,5-dihydro-3H-2,4,6,11,12a-pentaazabenzo[4,5]cycloocta[1,2,3-cd]inden-3-one] was run?
Answer: Its pIC50 is < 7.00.

Question: How did the pIC50 turn out when `O=C1c2ncn3c(NCc4c(F)ccc5c4CCO5)ncc(c23)-c2cnc(C(F)(F)F)cc2CN1CCF` [compound 72, 12-(((5-fluoro-2,3-dihydrobenzofuran-4-yl)methyl)amino)-4-(2-fluoroethyl)-7-(trifluoromethyl)-4,5-dihydro-3H-2,4,8,11,12a-pentaazabenzo[4,5]cycloocta[1,2,3-cd]inden-3-one] was run?
Answer: The pIC50 was 8.41.

Question: How did the pIC50 turn out when `CC(C)N1Cc2cc(C(F)(F)F)ncc2-c2cnc(NCc3c(F)ccc4c3CCO4)n3cnc(c23)C1=O` [compound 73, 12-(((5-fluoro-2,3-dihydrobenzofuran-4-yl)methyl)amino)-4-isopropyl-7-(trifluoromethyl)-4,5-dihydro-3H-2,4,8,11,12a-pentaazabenzo[4,5]cycloocta[1,2,3-cd]inden-3-one] was run?
Answer: Its pIC50 is 7.95.

Question: With `CN1CCC(N2Cc3cc(C(F)(F)F)ccc3-c3cnc(NCc4c(F)ccc5c4CCO5)n4cnc(c34)C2=O)CC1` [compound 74, 12-(((5-fluoro-2,3-dihydrobenzofuran-4-yl)methyl)amino)-4-(1-methylpiperidin-4-yl)-7-(trifluoromethyl)-4,5-dihydro-3H-2,4,11,12a-tetraazabenzo[4,5]cycloocta[1,2,3-cd]inden-3-one] as the compound, how does the pIC50 read?
Answer: Its pIC50 is 7.33.

Question: How did the pIC50 turn out when `CC(F)(F)CN1Cc2nc(C(F)(F)F)ccc2-c2cnc(NCc3c(F)ccc4c3CCO4)n3cnc(c23)C1=O` [compound 77, 4-(2,2-difluoropropyl)-12-(((5-fluoro-2,3-dihydrobenzofuran-4-yl)methyl)amino)-7-(trifluoromethyl)-4,5-dihydro-3H-2,4,6,11,12a-pentaazabenzo[4,5]cycloocta[1,2,3-cd]inden-3-one] was run?
Answer: The pIC50 was 7.65.

Question: How did the pIC50 turn out when `O=C1c2ncn3c(NCc4c(F)ccc5c4CCO5)ncc(c23)-c2ccc(C(F)(F)F)cc2CN1CC(F)F` [compound 81, 4-(2,2-difluoroethyl)-12-(((5-fluoro-2,3-dihydrobenzofuran-4-yl)methyl)amino)-7-(trifluoromethyl)-4,5-dihydro-3H-2,4,11,12a-tetraazabenzo[4,5]cycloocta[1,2,3-cd]inden-3-one] was run?
Answer: Its pIC50 is 8.84.

Question: `CCOC(=O)c1ncn2c(NCc3ccccc3OC)ncc(-c3ccccc3)c12` [compound 129, ethyl 5-((2-methoxybenzyl)amino)-8-phenylimidazo[1,5-c]pyrimidine-1-carboxylate] was tested. Which pIC50 did it give?
Answer: The pIC50 was < 7.00.

Question: With `CCOC(=O)c1ncn2c(NCc3c(F)cccc3OC)ncc(-c3ccccc3)c12` [compound 130, ethyl 5-((2-fluoro-6-methoxybenzyl)amino)-8-phenylimidazo[1,5-c]pyrimidine-1-carboxylate] as the compound, how does the pIC50 read?
Answer: Its pIC50 is < 7.00.

Question: `CCOC(=O)c1ncn2c(NCc3cc(OC)ccc3F)ncc(-c3ccccc3)c12` [compound 132, ethyl 5-((2-fluoro-5-methoxybenzyl)amino)-8-phenylimidazo[1,5-c]pyrimidine-1-carboxylate] was tested. Which pIC50 did it give?
Answer: Its pIC50 is < 7.00.

Same assay, conditions: Homo sapiens, KARPAS-422, 168 h, read-out: Karpas Cell line (nM)

Question: `Cc1ccc(-c2cnc(NCc3c(F)ccc4c3CCO4)n3cnc(S(C)(=O)=O)c23)cn1` [compound 103, N-((5-fluoro-2,3-dihydrobenzofuran-4-yl)methyl)-8-(6-methylpyridin-3-yl)-1-(methylsulfonyl)imidazo[1,5-c]pyrimidin-5-amine] was tested. Which IC50 did it give?
Answer: Its IC50 is 1.88 nM.

Question: `CS(=O)(=O)c1ccc(-c2cnc(NCc3c(F)ccc4c3CCO4)n3cnc(S(C)(=O)=O)c23)cn1` [compound 105, N-((5-fluoro-2,3-dihydrobenzofuran-4-yl)methyl)-1-(methylsulfonyl)-8-(6-(methylsulfonyl)pyridin-3-yl)imidazo[1,5-c]pyrimidin-5-amine] was tested. Which IC50 did it give?
Answer: Its IC50 is 10.8 nM.

Same assay, conditions: anti-proliferative IC50, Karpas 422 cell line, 7 day treatment; read-out: Karpas Cell line

Question: How did the pIC50 turn out when `O=C1c2ncn3c(NCc4c(F)ccc5c4CCO5)ncc(c23)-c2ccc(F)cc2CN1C1CC1` [compound 64, 4-cyclopropyl-7-fluoro-12-(((5-fluoro-2,3-dihydrobenzofuran-4-yl)methyl)amino)-4,5-dihydro-3H-2,4,11,12a-tetraazabenzo[4,5]cycloocta[1,2,3-cd]inden-3-one] was run?
Answer: Its pIC50 is 8.61.
